Consider 7 compounds from BindingDB's records for doi:10.1021/jm9811054 (Merck, 2000).

One may read the IC50 as the concentration that gives 50% inhibition. The low end stands for greater potency in that assay, the high end for weaker potency in that assay.

For the assay, the target named is 5-HT1D receptor (Bos taurus). As to the kind of experiment: Binding affinity towards 5-hydroxytryptamine 1D receptor in calf striatum using [3H]5-HT as radio-ligand.
As to `COc1ccc(NC(=O)NCCc2c[nH]c3ccc(F)cc23)cc1N1CCN(C)CC1` [1-[2-(5-Fluoro-1H-indol-3-yl)-ethyl]-3-[4-methoxy-3-(4-methyl-piperazin-1-yl)-phenyl]-urea], the 50% inhibitory concentration (IC50) came to 167 nM. To `COc1ccc(NC(=O)NCCN2CCC(c3c[nH]c4cc(F)ccc34)CC2)cc1OCCN(C)C` [1-[3-(2-Dimethylamino-ethoxy)-4-methoxy-phenyl]-3-{2-[4-(6-fluoro-1H-indol-3-yl)-piperidin-1-yl]-ethyl}-urea] belongs 433 nM; to `COc1ccc(NC(=O)N2CCC(c3c[nH]c4ccc(C(N)=O)cc34)CC2)cc1N1CCN(C)CC1` [3-{1-[4-Methoxy-3-(4-methyl-piperazin-1-yl)-phenylcarbamoyl]-piperidin-4-yl}-1H-indole-5-carboxylic acid amide], 100 nM. Take `COc1ccc(NC(=O)N2CCC(c3c[nH]c4ccc(C#N)cc34)CC2)cc1N1CCN(C)CC1` [4-(5-Cyano-1H-indol-3-yl)-piperidine-1-carboxylic acid [4-methoxy-3-(4-methyl-piperazin-1-yl)-phenyl]-amide]: the concentration for half-maximal inhibition (IC50) was found to be 400 nM.

As for `COc1ccc(NC(=O)N2CCC(c3c[nH]c4cc(F)ccc34)CC2)cc1N1CCN(C)CC1` [4-(6-Fluoro-1H-indol-3-yl)-piperidine-1-carboxylic acid [4-methoxy-3-(4-methyl-piperazin-1-yl)-phenyl]-amide], the IC50 turned out to be 200 nM. To `COc1ccc(NC(=O)N2CCN(CCCCc3c[nH]c4ccc(F)cc34)CC2)cc1N1CCN(C)CC1` [4-[4-(5-Fluoro-1H-indol-3-yl)-butyl]-piperazine-1-carboxylic acid [4-methoxy-3-(4-methyl-piperazin-1-yl)-phenyl]-amide] belongs 367 nM; to `COc1ccc(NC(=O)N2CCc3[nH]c4ccc(F)cc4c3C2)cc1N1CCN(C)CC1` [8-Fluoro-1,3,4,5-tetrahydro-pyrido[4,3-b]indole-2-carboxylic acid [4-methoxy-3-(4-methyl-piperazin-1-yl)-phenyl]-amide], 667 nM.
